Measurements: patent publication US8192962B2, “Processes for detecting toxic substances” (Daikin Industries, Ltd., priority 2001, dated 2012)

Tested on: Unknown protein yeast genes
Assay: DNA chip mRNA expression in yeast, unknown protein yeast genes (Table 1)
Assay type: cell-based, Saccharomyces cerevisiae S288C
Experimental: Yeast (Saccharomyces cerevisiae S288C (α SUC2mal mel gap2 CUP1)) were incubated at 25° C. on YPD medium (yeast extract 1%, polypepton 2%, glucose 2%). One of toxic chemical substances was added to the cells at logarithmic growth phase, and the cells were further incubated for two hours. Cells were cultured without any chemical substance in the same condition, and were used as control. Concentrations of the chemical substances were defined to inhibit the growth of the yeast but not lead to death.
After completion of the incubation, the culture was centrifuged to collect the cells. To the cells, sodium acetate buffer (50 mM sodium acetate, 10 mM EDTA, 1% SDS) was added, and the mixture was shaken at 65° C. for five minutes, followed by returning to room temperature, and obtaining the supernatant, of which the procedures were repeated two times. To the supernatant, ½ amount of a solution of phenol/chloroform was added, and the mixture was centrifuged to give a supernatant, which was added with an equal amount of chloroform, and the mixture was centrifuged to give a supernatant. To the supernatant, an equal amount of isopropanol containing 0.3 M sodium acetate was added, and the mixture was allowed to stand at room temperature for 30 minutes, after which the mixture was centrifuged to give a sediment of the whole RNAs. Seventy % ethanol was added to the sediment, and the mixture was again centrifuged to give a sediment, which was then dried and dissolved in water. mRNA was isolated from the whole RNAs as followings. In view of the fact that a poly A chain is attached to the 3′ terminus of mRNA, a polynucleotide having a poly T structure which was immobilized on the surface of latex beads was used to trap the mRNA, and then the mRNA was washed and eluted with spine column (Oligotex-dT30<Super>mRNA Purification Kit, Takara). Reverse transcription of the mRNA was conducted with a reverse transcriptase (Super Script II Reverse Transcriptase; catalogue No. 18064-014, GibcoBRL) using fluorescence-labeled nucleotides to give cDNAs that were introduced with Cy3-dUTP or Cy5-dUTP during the reverse transcription.
The labeled cDNAs were dissolved in TE buffer (10mM Tris-HCl/1 mM EDTA, pH8.0), and the solution was dropped on the DNA chip containing the whole genes of yeast (DNA Chip Research Inc. Japan) so that the cDNAs were hybridized on the DNA chip at 65° C. for over 12 hours. The fluoresces intensity of the DNA chip was read with a scanner, and the ratio relative to the fluorescence intensity resulting from the absence of chemical substance was estimated as the following, which is shown in Tables 1 to 9: […]

`CN(C)C(=S)SSC(=S)N(C)C` [(10), Tetramethylthiuram disulfide] was tested, and the “The level of expressed mRNA in the presence of chemical substance/The level of expressed mRNA in the absence of chemical substance” value (yeast gene YKL086W, incubated two hours with chemical substance) was 20.5, the “The level of expressed mRNA in the presence of chemical substance/The level of expressed mRNA in the absence of chemical substance” value (yeast gene YKL151C, incubated two hours with chemical substance) was 3.5 and the “The level of expressed mRNA in the presence of chemical substance/The level of expressed mRNA in the absence of chemical substance” value (yeast gene YKL153W, incubated two hours with chemical substance) was 1.4. The “The level of expressed mRNA in the presence of chemical substance/The level of expressed mRNA in the absence of chemical substance” value (yeast gene YKL195W, incubated two hours with chemical substance) was 2.1, the “The level of expressed mRNA in the presence of chemical substance/The level of expressed mRNA in the absence of chemical substance” value (yeast gene YKR011C) was 4.4 and the “The level of expressed mRNA in the presence of chemical substance/The level of expressed mRNA in the absence of chemical substance” value (yeast gene YKR091W, incubated two hours with chemical substance) was 1.6. The “The level of expressed mRNA in the presence of chemical substance/The level of expressed mRNA in the absence of chemical substance” value (yeast gene YLR054C, incubated two hours with chemical substance) was 1.1, the “The level of expressed mRNA in the presence of chemical substance/The level of expressed mRNA in the absence of chemical substance” value (yeast gene YLR149C, incubated two hours with chemical substance) was 5.2 and the “The level of expressed mRNA in the presence of chemical substance/The level of expressed mRNA in the absence of chemical substance” value (yeast gene YLR152C, incubated two hours with chemical substance) was 1.1. The “The level of expressed mRNA in the presence of chemical substance/The level of expressed mRNA in the absence of chemical substance” value (yeast gene YLR194C, incubated two hours with chemical substance) was 1.1, the “The level of expressed mRNA in the presence of chemical substance/The level of expressed mRNA in the absence of chemical substance” value (yeast gene YLR324W, incubated two hours with chemical substance) was 1.4 and the “The level of expressed mRNA in the presence of chemical substance/The level of expressed mRNA in the absence of chemical substance” value (yeast gene YLR350W, incubated two hours with chemical substance) was 1.4. For the same compound, the “The level of expressed mRNA in the presence of chemical substance/The level of expressed mRNA in the absence of chemical substance” value (yeast gene YLR387C, incubated two hours with chemical substance) was 3.0, the “The level of expressed mRNA in the presence of chemical substance/The level of expressed mRNA in the absence of chemical substance” value (yeast gene YLR460C) was 31.6 and the “The level of expressed mRNA in the presence of chemical substance/The level of expressed mRNA in the absence of chemical substance” value (yeast gene YML117W, incubated two hours with chemical substance) was 1.4. The “The level of expressed mRNA in the presence of chemical substance/The level of expressed mRNA in the absence of chemical substance” value (yeast gene YMR009W, incubated two hours with chemical substance) was 2.2, the “The level of expressed mRNA in the presence of chemical substance/The level of expressed mRNA in the absence of chemical substance” value (yeast gene YMR067C, incubated two hours with chemical substance) was 3.5 and the “The level of expressed mRNA in the presence of chemical substance/The level of expressed mRNA in the absence of chemical substance” value (yeast gene YMR090W) was 6.1. For the same compound, the “The level of expressed mRNA in the presence of chemical substance/The level of expressed mRNA in the absence of chemical substance” value (yeast gene YMR095C, incubated two hours with chemical substance) was 1.4, the “The level of expressed mRNA in the presence of chemical substance/The level of expressed mRNA in the absence of chemical substance” value (yeast gene YMR097C, incubated two hours with chemical substance) was 2.1 and the “The level of expressed mRNA in the presence of chemical substance/The level of expressed mRNA in the absence of chemical substance” value (yeast gene YMR102C, incubated two hours with chemical substance) was 2.6. For the same compound, the “The level of expressed mRNA in the presence of chemical substance/The level of expressed mRNA in the absence of chemical substance” value (yeast gene YMR107W, incubated two hours with chemical substance) was 17.1, the “The level of expressed mRNA in the presence of chemical substance/The level of expressed mRNA in the absence of chemical substance” value (yeast gene YMR180C, incubated two hours with chemical substance) was 2.2 and the “The level of expressed mRNA in the presence of chemical substance/The level of expressed mRNA in the absence of chemical substance” value (yeast gene YMR184W, incubated two hours with chemical substance) was 0.9. For the same compound, the “The level of expressed mRNA in the presence of chemical substance/The level of expressed mRNA in the absence of chemical substance” value (yeast gene YMR191W, incubated two hours with chemical substance) was 3.5, the “The level of expressed mRNA in the presence of chemical substance/The level of expressed mRNA in the absence of chemical substance” value (yeast gene YMR295C, incubated two hours with chemical substance) was 0.8 and the “The level of expressed mRNA in the presence of chemical substance/The level of expressed mRNA in the absence of chemical substance” value (yeast gene YMR316W, incubated two hours with chemical substance) was 3.0. For the same compound, the “The level of expressed mRNA in the presence of chemical substance/The level of expressed mRNA in the absence of chemical substance” value (yeast gene YNL044W, incubated two hours with chemical substance) was 0.8, the “The level of expressed mRNA in the presence of chemical substance/The level of expressed mRNA in the absence of chemical substance” value (yeast gene YNL074C, incubated two hours with chemical substance) was 2.0 and the “The level of expressed mRNA in the presence of chemical substance/The level of expressed mRNA in the absence of chemical substance” value (yeast gene YNL092W, incubated two hours with chemical substance) was 1.5. For the same compound, the “The level of expressed mRNA in the presence of chemical substance/The level of expressed mRNA in the absence of chemical substance” value (yeast gene YNL115C, incubated two hours with chemical substance) was 1.9, the “The level of expressed mRNA in the presence of chemical substance/The level of expressed mRNA in the absence of chemical substance” value (yeast gene YNL156C, incubated two hours with chemical substance) was 1.9 and the “The level of expressed mRNA in the presence of chemical substance/The level of expressed mRNA in the absence of chemical substance” value (yeast gene YNL234W, incubated two hours with chemical substance) was 3.3. The “The level of expressed mRNA in the presence of chemical substance/The level of expressed mRNA in the absence of chemical substance” value (yeast gene YNL281W, incubated two hours with chemical substance) was 1.6, the “The level of expressed mRNA in the presence of chemical substance/The level of expressed mRNA in the absence of chemical substance” value (yeast gene YNL305C, incubated two hours with chemical substance) was 2.1 and the “The level of expressed mRNA in the presence of chemical substance/The level of expressed mRNA in the absence of chemical substance” value (yeast gene YNR068C, incubated two hours with chemical substance) was 14.4. The “The level of expressed mRNA in the presence of chemical substance/The level of expressed mRNA in the absence of chemical substance” value (yeast gene YOL032W, incubated two hours with chemical substance) was 3.0, the “The level of expressed mRNA in the presence of chemical substance/The level of expressed mRNA in the absence of chemical substance” value (yeast gene YOL036W, incubated two hours with chemical substance) was 2.8 and the “The level of expressed mRNA in the presence of chemical substance/The level of expressed mRNA in the absence of chemical substance” value (yeast gene YOL047C, incubated two hours with chemical substance) was 2.3. The “The level of expressed mRNA in the presence of chemical substance/The level of expressed mRNA in the absence of chemical substance” value (yeast gene YOL071W, incubated two hours with chemical substance) was 2.3, the “The level of expressed mRNA in the presence of chemical substance/The level of expressed mRNA in the absence of chemical substance” value (yeast gene YOL082W, incubated two hours with chemical substance) was 2.0 and the “The level of expressed mRNA in the presence of chemical substance/The level of expressed mRNA in the absence of chemical substance” value (yeast gene YOL083W, incubated two hours with chemical substance) was 2.3. The “The level of expressed mRNA in the presence of chemical substance/The level of expressed mRNA in the absence of chemical substance” value (yeast gene YOL117W, incubated two hours with chemical substance) was 4.1, the “The level of expressed mRNA in the presence of chemical substance/The level of expressed mRNA in the absence of chemical substance” value (yeast gene YOL131W, incubated two hours with chemical substance) was 8.1 and the “The level of expressed mRNA in the presence of chemical substance/The level of expressed mRNA in the absence of chemical substance” value (yeast gene YOL150C) was 8.3. For the same compound, the “The level of expressed mRNA in the presence of chemical substance/The level of expressed mRNA in the absence of chemical substance” value (yeast gene YOL162W, incubated two hours with chemical substance) was 6.8, the “The level of expressed mRNA in the presence of chemical substance/The level of expressed mRNA in the absence of chemical substance” value (yeast gene YOR019W, incubated two hours with chemical substance) was 7.1 and the “The level of expressed mRNA in the presence of chemical substance/The level of expressed mRNA in the absence of chemical substance” value (yeast gene YOR197W, incubated two hours with chemical substance) was 0.7. The “The level of expressed mRNA in the presence of chemical substance/The level of expressed mRNA in the absence of chemical substance” value (yeast gene YOR338W) was 3.5, the “The level of expressed mRNA in the presence of chemical substance/The level of expressed mRNA in the absence of chemical substance” value (yeast gene YPL087W, incubated two hours with chemical substance) was 2.2 and the “The level of expressed mRNA in the presence of chemical substance/The level of expressed mRNA in the absence of chemical substance” value (yeast gene YPL196W, incubated two hours with chemical substance) was 2.8. The “The level of expressed mRNA in the presence of chemical substance/The level of expressed mRNA in the absence of chemical substance” value (yeast gene YPL206C, incubated two hours with chemical substance) was 1.1, the “The level of expressed mRNA in the presence of chemical substance/The level of expressed mRNA in the absence of chemical substance” value (yeast gene YPL222W, incubated two hours with chemical substance) was 3.4 and the “The level of expressed mRNA in the presence of chemical substance/The level of expressed mRNA in the absence of chemical substance” value (yeast gene YPR023C, incubated two hours with chemical substance) was 2.8. For the same compound, the “The level of expressed mRNA in the presence of chemical substance/The level of expressed mRNA in the absence of chemical substance” value (yeast gene YPR151C, incubated two hours with chemical substance) was 9.5.
